Blank lines part the entries; values can stand above or below the compound they belong to.
Legend:
P-gp = tested on: P-gp; design: method as in PMID 10820137; settings: 25 mg/kg; mice; cited from earlier work
in vivo = settings: 30 mg/kg
Experimental: Our established UPLC-MS/MS method was used to quantify pioglitazone concentrations in plasma and brain samples harvested at different time points (1, 2, 4, 6, and 8 hours) after mice were given either racemic pioglitazone or (+)-pioglitazone.
Error bar represents one SD.
A total of forty mice were split into two treatment groups (n = 20), with one group receiving a single dose of the racemic pioglitazone (30 mg/kg, p.o.) and another group receiving the purified (+)-pioglitazone (30 mg/kg, p.o.). Both compounds were dissolved in Milli-Q water using 1% DMSO as co-solvent. Following oral administration of the test compounds, mice from both treatment groups were split again into five subgroups (n = 4), and mice belonging to different subgroups were sacrificed at different time points (1 hour, 2 hours, 4 hours, 6 hours, and 8 hours after oral dosing). All mice were sacrificed by CO2 euthanasia and blood samples were taken via cardiac puncture. Blood samples were then centrifuged at 4000 g (10 minutes) to collect the plasma. Whole brains were collected following transcardial perfusion with saline to remove blood from organs. […] Pioglitazone concentrations versus time graphs were constructed for both brain and plasma samples, and area under curve (AUC) for both (+)-pioglitazone and racemic pioglitazone were then used to assess each tissue's exposure to pioglitazone. AUC was calculated from time 0 hour to infinity (AUC0–∞) for both types of samples using the trapezoidal rule. Comparisons of pioglitazone concentrations in different sample matrices between the two treatment groups were performed using two-tailed independent t-test with Welch's correction, and statistical significance was defined as P < 0.05.

CHO-APP695 cells = experiment: Extracellular amyloid-β42 lowering in CHO-APP695 (sandwich ELISA); assay type: cell-based, Chinese hamster; settings: 48 hours; for effect on increase in extracellular amyloid-β42: 10 μM, versus non-treated CHO-APP695
Experimental: Figure 4 Extracellular amyloid-β42 levels in culture media samples harvested from both CHO-WT and treated or non-treated CHO-APP695 following 48 hours of post-seeding incubation.
CHO (Chinese hamster ovary) cells stably transfected with mouse APP 695 (CHO-APP695) were used as the AD in vitro model in this experiment. CHO-APP695 and the wild type (CHO-WT) were kindly provided by G. S. Dawe (National University of Singapore, Singapore). Both cell lines were incubated at 37°C in the presence of 5% CO2 for all cell culture work. Cell lines were maintained in DMEM culture medium (Sigma D1152) containing 10% FBS and supplemented with 100 units/mL of penicillin and 100 μg/mL of streptomycin.
When cells were used for experiments, both CHO-APP695 and CHO-WT were standardised at third passage and harvested for seeding when the cells were at log-phase growth. Cells were seeded (n = 7) on 24-well cell culture plates at 1 × 10^5 cells/well in 0.5 mL of culture medium. To evaluate amyloid-lowering effects of (+)-pioglitazone and racemic pioglitazone on extracellular amyloid-β42 levels, additional groups (n = 7) of CHO-APP695 treated with (+)-pioglitazone, (+)-pioglitazone + T007, racemic pioglitazone, and racemic pioglitazone + T007 were also seeded. […] Upon completion of seeding after 24 hours, the culture medium in each well was replaced with 0.5 mL of fresh medium. Seeded cells were incubated further for 48 hours before the culture medium was individually harvested. Harvested samples were briefly centrifuged (800 g) for 5 minutes at 4°C before supernatants were transferred into clean 1.8-mL cryogenic vials and snap frozen in liquid nitrogen. All harvested samples were stored at −80°C until analysis.
Amyloid-β42 levels in culture media were harvested 48 hours after seeding incubation and were quantitatively measured using colorimetric sandwich ELISA kits according to the protocols provided by the manufacturer (#SIG-38954 and #SIG-38956 from Covance, Princeton, NJ). […] All absorbance readings were measured using a Tecan Infinite M200 microplate reader (Tecan, Switzerland).

[1] = In vivo investigation of P-gp and BCRP contributions to limited brain penetration of pioglitazone (brain-to-plasma ratio after transporter inhibitor pre-treatment); settings: C57BL/6, mouse, in vivo, 30 mg/kg
Experimental: (§1) All animals were pre-treated with the respective drug transporter inhibitor(s) 30 minutes before administration of pioglitazone. Thirty minutes after treatment with pioglitazone, all animals were sacrificed and plasma and brain samples were collected. […] The brain-to-plasma ratios of pioglitazone concentrations were used to assess penetration of brain tissue.
(§2) Figure 1 All animals were pre-treated with either the vehicle or the respective drug-transporter inhibitor (n = 6 for each treatment group) 30 minutes prior to drug treatment. Plasma and brain samples were then collected from the animals 30 minutes after pioglitazone treatment. (A) Pioglitazone levels in plasma samples harvested from mice given i.p. pioglitazone with or without pre-treatment of LY335979 (P-gp blocker) and/or Ko143 (BCRP blocker). (B) Brain-to-plasma ratios of pioglitazone concentrations calculated for each mouse given i.p. pioglitazone with or without pre-treatment of LY335979 and/or Ko143.
(§3) A total of 24 mice were divided into four treatment groups (n = 6), where three groups received pre-treatment of efflux pump inhibitors (P-gp inhibitor LY335979, BCRP inhibitor Ko143, and a combination of LY335979 + Ko143) and one group received vehicle pre-treatment as a control. All test compounds (pioglitazone, LY335979, and Ko143) were dissolved in Milli-Q water using 1% DMSO as co-solvent. Pre-treatments of LY335979 (25 mg/kg), Ko143 (5 mg/kg) or a combination of both were given in a single intra-peritoneal (i.p.) injection 30 minutes before pioglitazone administration (i.p. injection, 30 mg/kg). […] Following another 30 minutes after pioglitazone administration, all mice were sacrificed by CO2 euthanasia and their blood samples were collected via cardiac puncture into Eppendorf tubes supplemented with heparin. Transcardial perfusion with saline was then performed on the sacrificed mice to remove traces of blood from organs before the whole brain tissues were harvested. All biological samples were kept on ice immediately after collection. […]

[2] = tested on: P-gp and BCRP drug efflux transporters at the blood-brain-barrier; experiment: as above
Experimental: as §1, §2, §3

[3] = design: method as in PMID 21819568; settings: monkeys; cited from earlier work
[4] = rats, dogs, and monkeys; cited from earlier work
BCRP = tested on: BCRP; design: method as in PMID 22828996; settings: 5 mg/kg; mice; cited from earlier work

Compound: LY335979
- inhibition of P-gp (P-gp): 50%

- brain AUC0–∞ / brain exposure higher than after racemic pioglitazone (in vivo; mouse): 76%
- brain AUC0–∞ of pioglitazone (in vivo; mouse, po): 40 µg·h/mL
- brain Cmax of pioglitazone (in vivo; mouse, po): 5070 ± 380 ng/mL
- peak time (Tmax) of plasma pioglitazone (in vivo; mouse, po): 1 h
- plasma AUC0–∞ of pioglitazone (in vivo; mouse, po): 274 µg·h/mL
- plasma concentration maximum (Cmax) of pioglitazone (in vivo; mouse, po): 39920 ± 6200 ng/mL
Compound: CCc1ccc(CCOc2ccc(C[C@H]3SC(=O)NC3=O)cc2)nc1 (single isomer, unassigned) [(+)-pioglitazone]
- treatment effect on extracellular amyloid-β42 on co-administration of PPARγ selective blocker (T007) (CHO-APP695 cells; 10 μM each): nullified
- effect on increase in extracellular amyloid-β42 (CHO-APP695 cells): reduced significantly

Compound: CCc1ccc(CCOc2ccc(CC3SC(=O)NC3=O)cc2)nc1 (stereo not drawn) [pioglitazone, Pioglitazone]
- Kp at 30 min [1]: 0.107 ± 0.0125
- transporter substrate status ([2]; mouse, in vivo): substrate of P-gp
- pioglitazone brain-to-plasma concentration ratio ([2]; vehicle pre-treatment (control), pioglitazone 30 mg/kg i.p., 30 minutes after pioglitazone, n = 6): 10.65%
- AUC(0-inf) (in vivo; C57BL/6, mouse, po): 262 µg·h/mL
- Cmax (in vivo; C57BL/6, mouse, po): 53500 ± 8070 ng/mL
- Tmax (in vivo; C57BL/6, mouse, po): 1 h
- brain AUC0–∞ of pioglitazone (in vivo; C57BL/6, mouse, po): 22.7 µg·h/mL
- brain Cmax of pioglitazone (in vivo; C57BL/6, mouse, po): 4880 ± 340 ng/mL
- effect on increase in extracellular amyloid-β42 (CHO-APP695 cells): reduced significantly
- cerebral spinal fluid (CSF) concentration as % of plasma concentrations [3]: less than 3%
- share of serum pioglitazone found in the CSF [4]: approximately 18%

Compound: COc1ccc2c3c([nH]c2c1)[C@H](CC(C)C)N1C(=O)[C@H](CCC(=O)OC(C)(C)C)NC(=O)[C@@H]1C3 [Ko143]
- inhibition of BCRP (BCRP): 50%

Reference: PMC5390903, “Influence of drug transporters and stereoselectivity on the brain penetration of pioglitazone as a potential medicine against Alzheimer's disease” (Scientific Reports, 2015)
